Values of other authors, collected in US20030143271A1, “Drug mixture with enhanced dissolution rate” (priority 2002, published 2003).

How the values were obtained:
[1] = system: antiplatelet effects of the aspirin; conditions: in combination with low-dose aspirin, healthy subjects
[2] = target: platelet cyclooxygenase-1 (Homo sapiens, UniProt P23219); conditions: clinical relevance not clear
Chain of platelet cyclooxygenase-1 (P23219 24-599): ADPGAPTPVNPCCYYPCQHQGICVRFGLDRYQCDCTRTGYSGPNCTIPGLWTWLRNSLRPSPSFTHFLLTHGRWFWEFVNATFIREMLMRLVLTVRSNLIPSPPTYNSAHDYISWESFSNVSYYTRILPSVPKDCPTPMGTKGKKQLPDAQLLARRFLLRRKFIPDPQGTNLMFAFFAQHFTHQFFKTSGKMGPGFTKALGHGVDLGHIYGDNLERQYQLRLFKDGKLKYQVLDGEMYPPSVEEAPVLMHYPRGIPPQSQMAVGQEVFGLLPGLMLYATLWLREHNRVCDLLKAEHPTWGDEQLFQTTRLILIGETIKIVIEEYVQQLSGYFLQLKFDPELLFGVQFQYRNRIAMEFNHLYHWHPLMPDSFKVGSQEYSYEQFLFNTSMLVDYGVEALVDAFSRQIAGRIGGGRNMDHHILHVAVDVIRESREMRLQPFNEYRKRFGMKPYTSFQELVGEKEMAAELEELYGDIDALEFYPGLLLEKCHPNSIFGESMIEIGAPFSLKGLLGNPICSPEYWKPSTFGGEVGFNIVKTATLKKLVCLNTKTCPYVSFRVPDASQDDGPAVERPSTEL

Row | effect on the antiplatelet activity of aspirin [2] | SMILES | effect on antiplatelet effects of aspirin [1]
1 | some antagonistic effect | CS(=O)(=O)c1ccc(C2=C(c3ccccc3)C(=O)OC2)cc1 [rofecoxib] | did not alter antiplatelet effects of the aspirin
2 | some antagonistic effect | Cc1onc(-c2ccccc2)c1-c1ccc(S(N)(=O)=O)cc1 [valdecoxib] | 
